Results reported in patent US9765074B2, “Inhibitors of the renal outer medullary potassium channel” (Merck Sharp & Dohme Corp., priority 2013, dated 2017).

These molecules were tested against T1, hROMK (hKir1.1) (Homo sapiens, UniProt P48048) (assay: Thallium Flux Assay (ROMK channel functional thallium flux, FLIPR-Tetra)). Settings: HEK293 cells stably expressing hROMK (hKir1.1); 30 min compound incubation.
T1 construct: expressed in transfected cells
T1 sequence (P48048 1-391): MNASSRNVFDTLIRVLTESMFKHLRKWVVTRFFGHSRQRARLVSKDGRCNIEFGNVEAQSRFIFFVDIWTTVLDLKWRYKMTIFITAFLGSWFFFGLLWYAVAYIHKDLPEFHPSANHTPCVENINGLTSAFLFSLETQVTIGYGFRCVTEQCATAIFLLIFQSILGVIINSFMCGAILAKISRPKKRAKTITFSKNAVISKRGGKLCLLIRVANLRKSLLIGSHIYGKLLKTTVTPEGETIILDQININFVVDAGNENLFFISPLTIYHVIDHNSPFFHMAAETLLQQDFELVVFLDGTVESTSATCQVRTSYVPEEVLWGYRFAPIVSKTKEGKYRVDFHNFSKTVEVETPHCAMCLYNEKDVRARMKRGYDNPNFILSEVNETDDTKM
Format: cell-based
How it was run: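 Thallium flux read by FluxOR fluorescence ([…]) for ~10 min after adding 3 mM Tl+/0.3 mM K+ final. Stable HEK-hKir1.1 cells were dye-loaded 90 min, exposed to compound 30 min at room temperature in ouabain/probenecid buffer; IC50 relative to a 3 μM control inhibitor.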
For `O=C1C=C(N2C=CC3(CCN(C[C@@H](O)c4ccc(-n5cnnn5)nc4)CC3)C2=O)CO1` [Example 155, 8-{(2S)-2-hydroxy-2-[6-(1H-tetrazol-1-yl)pyridin-3-yl]ethyl}-1-oxo-2-(5-oxo-2,5-dihydrofuran-3-yl)-2-aza-8-azoniaspiro[4.5]dec-3-ene], the IC50 was 0.06 µM. `CC1=C(N2CC(O)C3(CC4CCC(C3)N4C[C@@H](O)c3ccc(-n4cnnn4)nc3)C2=O)COC1=O` (single isomer, unassigned) [Example 107] gave an IC50 of 0.11 µM. Molecule `C[C@@H]1CC2(CCN(C[C@H](O)c3cnc(-n4cnnn4)cn3)CC2)C(=O)N1C1=CC(=O)OC1` [Example 79, (3R)-8-{(2S)-2-hydroxy-2-[5-(1H-tetrazol-1-yl)pyrazin-2-yl]ethyl}-3-methyl-1-oxo-2-(5-oxo-2,5-dihydrofuran-3-yl)-2-aza-8-azoniaspiro[4.5]decane] has an IC50 of 0.1 µM. Molecule `CC1=C(N2CCC3(CC4CCC(C3)N4C[C@H](O)c3cnc(-n4cnnn4)nc3)C2=O)COC1=O` (stereo partly drawn) [Example 45, (1R,5R)-8-{(2R)-2-hydroxy-2-[2-(1H-tetrazol-1-yl)pyrimidin-5-yl]ethyl}-1′-(4-methyl-5-oxo-2,5-dihydrofuran-3-yl)-2′-oxospiro[8-azoniabicyclo[3.2.1]octane-3,3′-pyrrolidine]] has an IC50 of 0.03 µM. With `CC1=C(N2CC(O)C3(CCN(C[C@H](O)c4ccc(-n5cnnn5)nc4)CC3)C2=O)COC1=O` (single isomer, unassigned) [Example 110] the IC50 was 0.12 µM. With `COC1CN(C[C@H](O)c2cnc(-n3cnnn3)cn2)CCC12CCN(C1=C(C)C(=O)OC1)C2=O` (single isomer, unassigned) [Example 178] the IC50 was 0.79 µM. Work on `Cc1cc(-n2cnnn2)nnc1CCN1CCC2(CC1)C[C@H](C)N(C1=CC(=O)OC1)C2=O` [Example 262, (3S)-3-methyl-8-{2-[4-methyl-6-(1H-tetrazol-1-yl)pyridazin-3-yl]ethyl}-2-(5-oxo-2,5-dihydrofuran-3-yl)-2,8-diazaspiro[4.5]decan-1-one] yielded an IC50 of 0.004 µM. Work on `CC1=C(N2CCC3(CCN(C[C@@H](O)c4nnc(-n5cnnn5)cc4C)CC3F)C2=O)COC1=O` (single isomer, unassigned) [Example 186] yielded an IC50 of 0.07 µM. Work on `CO[C@@H](CN1CCC2(CC1)CCN(C1=C(C)C(=O)OC1)C2=O)c1cnc(-n2cnnn2)cn1` [Example 283] yielded an IC50 of 0.06 µM. `CC1=C(N2CCC3(CCN([C@H](C)Cc4ccc(-n5cnnn5)nn4)CC3)C2=O)COC1=O` (single isomer, unassigned) [Example 294] gave an IC50 of 0.004 µM. For `CC1=C(N2CCC3(CCN(C[C@H](O)c4ccc(-n5cnnn5)cc4)CC3)C2=O)COC1=O` [Example 34, 8-{(2R)-2-hydroxy-2-[4-(1H-tetrazol-1-yl)phenyl]ethyl}-2-(4-methyl-5-oxo-2,5-dihydrofuran-3-yl)-1-oxo-2-aza-8-azoniaspiro[4.5]decane], the IC50 was 0.01 µM. In the case of `CC1=C(N2C(=O)C3(CCN(C[C@@H](O)c4ccc(-n5cnnn5)nn4)CC3)CC2C)COC1=O` (single isomer, unassigned) [Example 124], the IC50 is reported as 0.04 µM. In the case of `CC1=C(N2CCC3(CCN(C[C@@H](O)c4ccc(-n5cnnn5)nc4C)CC3)C2=O)COC1=O` [Example 21, 8-{(2S)-2-hydroxy-2-[2-methyl-6-(1H-tetrazol-1-yl)pyridin-3-yl]ethyl}-2-(4-methyl-5-oxo-2,5-dihydrofuran-3-yl)-1-oxo-2-aza-8-azoniaspiro[4.5]decane], the IC50 is reported as 0.04 µM. In the case of `CC1=C(N2C(=O)C3(CCN(CCc4ccc(-n5cnnn5)nn4)CC3)CC2C)COC1=O` (racemic) [Example 241, 3-methyl-2-(4-methyl-5-oxo-2,5-dihydrofuran-3-yl)-1-oxo-8-{2-[6-(1H-tetrazol-1-yl)pyridazin-3-yl]ethyl}-2-aza-8-azoniaspiro[4.5]decane], the IC50 is reported as 0.02 µM. `CC1=C(N2CCC3(CCN(C[C@@H](O)c4ccc(-n5cnnn5)nn4)CC3F)C2=O)COC1=O` (single isomer, unassigned) [Example 184] gave an IC50 of 0.07 µM. Work on `COC1CN(C2=C(C)C(=O)OC2)C(=O)C12CCN(C[C@H](O)c1ccc(-n3cnnn3)nc1)CC2` (single isomer, unassigned) [Example 115] yielded an IC50 of 0.06 µM. In the case of `CC1=C(N2CCC3(CCN(CCc4ccc(-n5cnnn5)cn4)CC3)C2=O)COC1=O` [Example 238, 2-(4-methyl-5-oxo-2,5-dihydrofuran-3-yl)-1-oxo-8-{2-[5-(1H-tetrazol-1-yl)pyridin-2-yl]ethyl}-2-aza-8-azoniaspiro[4.5]decane], the IC50 is reported as 0.01 µM. `CC1=C(N2CCC3(CCN(C[C@H](O)c4ccc(-n5cnnn5)nc4C)CC3O)C2=O)COC1=O` (single isomer, unassigned) [Example 202] was tested, and the IC50 was 0.06 µM. In the case of `CC1=C(N2CCC3(CCN(C(C)(C)C(O)c4ccc(-n5cnnn5)cn4)CC3)C2=O)COC1=O` (single isomer, unassigned) [Example 300], the IC50 is reported as 0.02 µM. In the case of `CC1(C)CC2(CCN(C[C@H](O)c3ccc(-n4cnnn4)nn3)CC2)C(=O)N1C1=CC(=O)OC1` [Example 189, 8-{(2S)-2-hydroxy-2-[6-(1H-tetrazol-1-yl)pyridazin-3-yl]ethyl}-3,3-dimethyl-1-oxo-2-(5-oxo-2,5-dihydrofuran-3-yl)-2-aza-8-azoniaspiro[4.5]decane], the IC50 is reported as 0.05 µM. `CC1=C(N2CCC3(CCN(C[C@@H](O)c4ccc(-n5cnnn5)nn4)CC3F)C2=O)COC1=O` (single isomer, unassigned) [Example 197] was tested, and the IC50 was 0.03 µM. `COC1CN(C[C@@H](O)c2ccc(-n3cnnn3)nc2)CCC12CCN(C1=C(C)C(=O)OC1)C2=O` (single isomer, unassigned) [Example 177] was tested, and the IC50 was 0.07 µM. With `C[C@H]1CC2(CCN(CCc3ccc(-n4cnnn4)nn3)CC2)C(=O)N1C1=CC(=O)OC1` [Example 264, (3S)-3-methyl-2-(5-oxo-2,5-dihydrofuran-3-yl)-8-{2-[6-(1H-tetrazol-1-yl)pyridazin-3-yl]ethyl}-2,8-diazaspiro[4.5]decan-1-one] the IC50 was 0.003 µM. In the case of `CC1=C(N2CCC3(CCN(C[C@H](O)c4ccc(-n5cnnn5)nc4)CC3)C2=O)COC1=O` [Example 18, 8-{(2R)-2-hydroxy-2-[6-(1H-tetrazol-1-yl)pyridin-3-yl]ethyl}-2-(4-methyl-5-oxo-2,5-dihydrofuran-3-yl)-1-oxo-2-aza-8-azoniaspiro[4.5]decane], the IC50 is reported as 0.01 µM. With `CC1=C(N2C=CC3(CCN(C[C@H](O)c4nnc(-n5cnnn5)cc4C)CC3)C2=O)COC1=O` [Example 154, 8-{(2S)-2-hydroxy-2-[4-methyl-6-(1H-tetrazol-1-yl)pyridazin-3-yl]ethyl}-2-(4-methyl-5-oxo-2,5-dihydrofuran-3-yl)-1-oxo-2-aza-8-azoniaspiro[4.5]dec-3-ene] the IC50 was 0.03 µM. Work on `O=C1C=C(N2C(=O)C3(CCN(C[C@H](O)c4cnc(-n5cnnn5)cn4)CC3)CC2CF)CO1` (single isomer, unassigned) [Example 204] yielded an IC50 of 0.3 µM. Molecule `CC1CC2(CCN(C(C)(C)C(O)c3cnc(-n4cnnn4)cn3)CC2)C(=O)N1C1=CC(=O)OC1` (single isomer, unassigned) [Example 303, 8-(1-(5-(1H-tetrazol-1-yl)pyrazin-2-yl)-1-hydroxy-2-methylpropan-2-yl)-3-methyl-2-(5-oxo-2,5-dihydrofuran-3-yl)-2,8-diazaspiro[4.5]decan-1-one] has an IC50 of 2 µM. Molecule `CC1=C(N2CCC3(CC4CCC(C3)N4C[C@H](O)c3cnc(-n4cnnn4)cn3)C2=O)COC1=O` (stereo partly drawn) [Example 48, (1R,5R)-8-{(2S)-2-hydroxy-2-[5-(1H-tetrazol-1-yl)pyrazin-2-yl]ethyl}-1′-(4-methyl-5-oxo-2,5-dihydrofuran-3-yl)-2′-oxospiro[8-azoniabicyclo[3.2.1]octane-3,3′-pyrrolidine]] has an IC50 of 0.03 µM. For `CC1=CC2(CCN(CCc3ccc(-n4cnnn4)nn3)CC2)C(=O)N1C1=CC(=O)OC1` [Example 255, 3-methyl-2-(5-oxo-2,5-dihydrofuran-3-yl)-8-{2-[6-(1H-tetrazol-1-yl)pyridazin-3-yl]ethyl}-2,8-diazaspiro[4.5]dec-3-en-1-one], the IC50 was 0.02 µM. Work on `COC1CN(CCc2nnc(-n3cnnn3)cc2C)CCC12CCN(C1=C(C)C(=O)OC1)C2=O` (single isomer, unassigned) [Example 259, 6-methoxy-2-(4-methyl-5-oxo-2,5-dihydrofuran-3-yl)-8-{2-[4-methyl-6-(1H-tetrazol-1-yl)pyridazin-3-yl]ethyl}-2,8-diazaspiro[4.5]decan-1-one] yielded an IC50 of 0.1 µM. `O=C1C=C(N2C=CC3(CCN(C[C@H](O)c4cnc(-n5cnnn5)cn4)CC3)C2=O)CO1` [Example 152, 8-{(2S)-2-hydroxy-2-[5-(1H-tetrazol-1-yl)pyrazin-2-yl]ethyl}-1-oxo-2-(5-oxo-2,5-dihydrofuran-3-yl)-2-aza-8-azoniaspiro[4.5]dec-3-ene] gave an IC50 of 0.27 µM. `Cc1nc([C@H](O)CN2CCC3(CC2)CCN(C2=CC(=O)OC2)C3=O)ccc1-n1cnnn1` [Example 8, 8-{(2R)-2-hydroxy-2-[6-methyl-5-(1H-tetrazol-1-yl)pyridin-2-yl]ethyl}-1-oxo-2-(5-oxo-2,5-dihydrofuran-3-yl)-2-aza-8-azoniaspiro[4.5]decane] was tested, and the IC50 was 0.06 µM. `CC1=C(N2CCC3(CCN(CCc4ccc(-n5cnnn5)nc4)CC3)C2=O)COC1=O` [Example 233] gave an IC50 of 0.01 µM. `COc1cc(-n2cnnn2)ncc1[C@H](O)CN1CCC2(CC1)CCN(C1=C(C)C(=O)OC1)C2=O` [Example 94, 8-{(2S)-2-hydroxy-2-[4-methoxy-6-(1H-tetrazol-1-yl)pyridin-3-yl]ethyl}-2-(4-methyl-5-oxo-2,5-dihydrofuran-3-yl)-1-oxo-2-aza-8-azoniaspiro[4.5]decane] gave an IC50 of 0.02 µM.
